# Like-named read-outs stand apart in the source and are kept apart here.
# What was measured:
# [1] = system: Lgr5 GFP+ cochlear progenitor cells; test: Lgr5+ Assay (Stem Cell Proliferation Assay); format: cell-based
# HDAC = HDAC 1, 2, 3, 8; read-out: HDAC Potene; cited from earlier work
# LSD1 [2] = molecular target: T1, LSD1 (Homo sapiens, UniProt O60341); details: Table 1, LSD1 inhibitors; read-out: pKi or IC50 (converted); cited from earlier work
# LSD1 [3] = molecular target: T1, LSD1; details: literature cell potency, LSD1 inhibitors; cited from earlier work
# [4] = system: Lgr5+ cochlear progenitor cells; test: Quantification of Lgr5+ cochlear progenitor cell proliferation, expansion and enrichment (3D Matrigel culture, Celigo imaging, GFP(+) cell area); format: cell-based, mouse
# [5] = cited from earlier work
# KDM5 = details: Table 9; read-out: Select KDM5; cited from earlier work
# KDM = details: literature cell potency, KDM inhibitors; cited from earlier work
# EZH2 [6] = molecular target: T2, EZH2 (Homo sapiens, UniProt Q15910); details: literature cell potency, EZH2 inhibitors; cited from earlier work
# EZH2 [7] = molecular target: T2, EZH2; details: Table 7, EZH2 (incl. EED, SAH-hydrolase) inhibitors; read-out: pKi or IC50 (converted); cited from earlier work
# [8] = EZH2 inhibitors, active concentration range, <= is the upper end of a wrapped range
# [9] = EZH2 inhibitors, lower end of active range wrapped over two lines
# [10] = EZH2 inhibitors, <= is the upper end of a wrapped range
# T2 sequence (Q15910 whole entry, species assumed): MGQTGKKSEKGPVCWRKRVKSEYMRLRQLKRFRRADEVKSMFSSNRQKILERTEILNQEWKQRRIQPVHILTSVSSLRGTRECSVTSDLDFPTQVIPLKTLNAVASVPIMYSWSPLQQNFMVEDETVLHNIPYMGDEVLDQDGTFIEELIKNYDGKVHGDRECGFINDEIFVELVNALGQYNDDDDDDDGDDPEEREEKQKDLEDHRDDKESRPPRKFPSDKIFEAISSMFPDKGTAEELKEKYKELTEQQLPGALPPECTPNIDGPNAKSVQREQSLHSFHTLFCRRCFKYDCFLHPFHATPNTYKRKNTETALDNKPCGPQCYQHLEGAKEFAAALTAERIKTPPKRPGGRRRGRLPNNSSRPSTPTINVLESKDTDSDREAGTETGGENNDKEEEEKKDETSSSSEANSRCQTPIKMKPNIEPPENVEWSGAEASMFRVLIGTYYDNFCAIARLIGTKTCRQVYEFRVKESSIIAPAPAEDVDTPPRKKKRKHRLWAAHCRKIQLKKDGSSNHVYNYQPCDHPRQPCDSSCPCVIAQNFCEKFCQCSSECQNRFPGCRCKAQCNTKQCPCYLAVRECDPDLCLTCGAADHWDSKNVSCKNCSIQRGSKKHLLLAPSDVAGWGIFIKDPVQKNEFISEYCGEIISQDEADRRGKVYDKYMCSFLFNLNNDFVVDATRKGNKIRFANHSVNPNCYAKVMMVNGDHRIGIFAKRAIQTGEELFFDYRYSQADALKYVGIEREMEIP
# T2 sequence (O75530 whole entry partner, species assumed): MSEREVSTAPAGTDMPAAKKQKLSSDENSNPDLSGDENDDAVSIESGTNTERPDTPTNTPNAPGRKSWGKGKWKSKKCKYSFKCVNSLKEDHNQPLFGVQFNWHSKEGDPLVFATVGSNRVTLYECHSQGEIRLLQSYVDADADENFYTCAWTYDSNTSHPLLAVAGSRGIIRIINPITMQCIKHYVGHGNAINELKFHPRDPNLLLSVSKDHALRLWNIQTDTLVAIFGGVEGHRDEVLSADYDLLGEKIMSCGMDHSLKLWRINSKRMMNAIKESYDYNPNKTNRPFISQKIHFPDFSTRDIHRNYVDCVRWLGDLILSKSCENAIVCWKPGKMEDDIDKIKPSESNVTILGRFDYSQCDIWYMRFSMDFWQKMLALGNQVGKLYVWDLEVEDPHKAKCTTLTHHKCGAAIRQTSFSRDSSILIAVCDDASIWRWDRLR
# T2 sequence (Q15022 whole entry partner, species assumed): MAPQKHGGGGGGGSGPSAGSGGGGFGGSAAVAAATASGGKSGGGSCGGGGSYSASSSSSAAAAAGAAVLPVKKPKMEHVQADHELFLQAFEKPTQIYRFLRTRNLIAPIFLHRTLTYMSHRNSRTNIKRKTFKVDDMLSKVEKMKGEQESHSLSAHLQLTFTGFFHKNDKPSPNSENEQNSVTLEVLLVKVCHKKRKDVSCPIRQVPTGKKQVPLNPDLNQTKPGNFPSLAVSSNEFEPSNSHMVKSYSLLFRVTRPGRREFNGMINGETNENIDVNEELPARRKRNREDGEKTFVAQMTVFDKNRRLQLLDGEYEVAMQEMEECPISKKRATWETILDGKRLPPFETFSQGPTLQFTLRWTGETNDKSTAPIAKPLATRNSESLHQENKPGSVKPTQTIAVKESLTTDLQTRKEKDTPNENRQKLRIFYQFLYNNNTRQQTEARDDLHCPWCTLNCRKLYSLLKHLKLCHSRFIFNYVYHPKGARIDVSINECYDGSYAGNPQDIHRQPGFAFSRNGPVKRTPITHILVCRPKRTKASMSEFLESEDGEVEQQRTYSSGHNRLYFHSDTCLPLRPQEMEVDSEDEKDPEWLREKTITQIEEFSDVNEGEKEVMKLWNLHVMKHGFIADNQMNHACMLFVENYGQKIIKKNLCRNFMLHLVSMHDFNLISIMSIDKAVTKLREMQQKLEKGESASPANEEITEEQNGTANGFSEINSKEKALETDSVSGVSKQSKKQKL
structure (smiles),measurement,setting,value
C#CCC(CCCCCC)C(=O)O (stereo not shown) [2-hexyl-4-pentynoic acid],Lgr5+ Assay,"[1]; HDAC inhibitors, lower end of active range wrapped over two lines",≥ 100 μM-
same,Lgr5+ Assay,"[1]; HDAC inhibitors, upper end of active range wrapped over two lines",≤ 4000 µM
same,IC50,HDAC,13000 nM
COc1c(O)cc2oc3cc(O)c(CC=C(C)C)c(O)c3c(=O)c2c1CC=C(C)C [Alpha-mangostin],IC50,LSD1 [2],2800 nM
COC(=O)c1cc(CN2CCN(C(=N)N)CC2)cc(C(=O)N2CCN(C(=O)c3ccc(C(=N)N)cc3)CC2)c1 [CBB-1007],IC50,LSD1 [2],2100 nM
same,Literat. Cell,LSD1 [3],IC50 ≤ 5 μM
COc1cc(C)[nH]c(=O)c1CNC(=O)c1c(C)n([C@H](C)C2CCN(CC(F)(F)F)CC2)c2ccccc12 [CPI-1205],Lgr5+ Assay,[1]; [8],≤ 30 µM
same,Lgr5+ Assay,[1]; [9],≥ 100 nM-
same,Lgr5 GFP(+) cell area,[1]; FIG. 17A: 0-30 μM CPI-1205 alone in EFI,does not proliferate
same,enrichment of Lgr5 GFP+ cells (y-axis: Lgr5 GFP(+) cell area),[1]; FIG. 17B: 0-30 μM CPI-1205 alone in EFI,does not enrich
same,Lgr5 GFP(+) cell area,"[1]; FIG. 18A, 19A: 3.33 μM CPI-1205 + 4 μM CHIR99021 in EFI vs CHIR alone",enhances Lgr5 GFP+ progenitor cell proliferation
same,Lgr5 GFP(+) cell area percentage,"[1]; FIG. 18B, 19B: 3.33 μM CPI-1205 + 4 μM CHIR99021 in EFI vs CHIR alone",enhances enrichment
same,Lgr5+ progenitor cell proliferation and enrichment,[4]; in combination with Wnt agonist CHIR99021,enhanced Lgr5+ progenitor cell proliferation and enrichment
same,proliferation or enrichment of cochlear progenitor cells,[4]; inhibitor alone,does not promote the proliferation or enrichment
same,Human In Vivo Conc,[5]; [10],25 to 250 µM
CCc1c(-c2ccccc2C)nc2c(C#N)c[nH]n2c1=O [CPI-4203],IC50,KDM5,1100 nM
Cc1cc(Cl)ccc1COc1ccnn1-c1cc(C(=O)O)ccn1 [Compound 33],Lit Cell,KDM,~1 µM
Nc1nccc2c1ncn2[C@@H]1C=C(CO)[C@@H](O)[C@H]1O [DZNep],Lgr5+ Assay,"[1]; EZH2 inhibitors, result in words",Active
same,Lit Cell Poten,EZH2 [6],1000 nM
CCc1c(N(CC)C2CCOCC2)cc2oc(C3CCN(C(C)C)CC3)cc2c1C(=O)NCc1c(C)cc(C)[nH]c1=O [EBI-2511],IC50,EZH2 [7],4 nM
N#Cc1c2c(c3nncn3c1NCc1ccco1)CN(Cc1ccccc1)CC2 [EED162],IC50,EZH2 [7],30 nM
same,Lit Cell Poten,EZH2 [6],80 nM
CC(C)N(CCCNC(=O)Nc1ccc(C(C)(C)C)cc1)C[C@H]1O[C@@H](n2ccc3c(N)ncnc32)[C@H](O)[C@@H]1O [EPZ004777],Lgr5+ Assay,"[1]; DOT1L inhibitors, active concentration range",0.6-45 μm μM
same,Lgr5 GFP(+) cell count,"[1]; FIG. 34A: 15 μM EPZ004777 + 3 μM CHIR99021 in EFI vs EFI-C, EFI-CV",enhances Lgr5 GFP+ progenitor cell proliferation
same,Lgr5 GFP(+) cell proliferation percentage,"[1]; FIG. 34B: 15 μM EPZ004777 + 3 μM CHIR99021 in EFI vs EFI-C, EFI-CV",enhances enrichment
same,Lgr5+ progenitor cell proliferation and enrichment,"[4]; combined with CHIR99021, compared to CHIR99021 alone",proliferation and enrichment are enhanced
same,Human In Vivo Conc,[5]; DOT1L inhibitors,0.1-45 uM μM
CCN(c1cc(C#CCN2CCOCC2)cc(C(=O)NCc2c(C)cc(C)[nH]c2=O)c1C)[C@H]1CC[C@H](N(C)CCOC)CC1 [EPZ-011989],Lgr5+ Assay,[1]; [8],≤ 30 µM
same,Lgr5+ Assay,[1]; [9],≥ 100 nM-
same,Human In Vivo Conc,[5]; [10],0.10 to 30 µM
same,Lit Cell Poten,EZH2 [6],94 nM
CC1=C(C(=O)OC2CCCCC2)C(c2ccc([N+](=O)[O-])cc2)C2=C(CC(C)(C)CC2=O)N1 (stereo not shown) [FLI-06],IC50,LSD1 [2],92 nM
CCCc1cc(C)[nH]c(=O)c1CNC(=O)c1cc(-c2ccnc(N3CCN(C)CC3)c2)cc2c1cnn2C(C)C [GSK343],Lit Cell Poten,EZH2 [6],174 nM
Cc1cc(C)c(CNC(=O)c2cc(-c3ccc(N4CCN(C)CC4)nc3)cc3c2cnn3C(C)C)c(=O)[nH]1 [GSK926],IC50,EZH2 [7],7.9 nM
same,Lit Cell Poten,EZH2 [6],324 nM
O=C(O)c1ccc(CN2CCC(CN[C@@H]3C[C@H]3c3ccccc3)CC2)cc1 [GSK-2879552],Lgr5+ Assay,"[1]; active concentration of LSD1 inhibitor, <= is the upper end of a range wrapped over two lines",≤ 30 µM
same,Lgr5+ Assay,"[1]; active concentration of LSD1 inhibitor, >= is the lower end of a range wrapped over two lines",≥ 40 nM-
same,Literat. Cell,LSD1 [3],2 to 240 nM
same,Human Plasma Conc.,"[5]; human plasma, LSD1 inhibitors",1 to 100 nM
O=C(O)CCNc1cc(N2CCc3ccccc3CC2)nc(-c2ccccn2)n1 [GSK-J1],Lit Cell,KDM,50 µM

# From patent US20220127568A1, “COMPOSITIONS AND METHODS FOR GENERATING HAIR CELLS BY INHIBITING EPIGENETIC TARGETS” (Frequency Therapeutics, Inc., priority 2019, published 2022)
